Source: article PMC9724349, “Discovery of a pyrano[2,3-b]pyridine derivative YX-2102 as a cannabinoid receptor 2 agonist for alleviating lung fibrosis” (Journal of Translational Medicine, 2022)

Target: T1, cannabinoid receptor 2 (CB2R) (Homo sapiens, UniProt P34972)
T1 construct: gene CNR2
Assay: radioligand binding assay, [3H]CP […] displacement

T1 sequence (P34972 whole entry): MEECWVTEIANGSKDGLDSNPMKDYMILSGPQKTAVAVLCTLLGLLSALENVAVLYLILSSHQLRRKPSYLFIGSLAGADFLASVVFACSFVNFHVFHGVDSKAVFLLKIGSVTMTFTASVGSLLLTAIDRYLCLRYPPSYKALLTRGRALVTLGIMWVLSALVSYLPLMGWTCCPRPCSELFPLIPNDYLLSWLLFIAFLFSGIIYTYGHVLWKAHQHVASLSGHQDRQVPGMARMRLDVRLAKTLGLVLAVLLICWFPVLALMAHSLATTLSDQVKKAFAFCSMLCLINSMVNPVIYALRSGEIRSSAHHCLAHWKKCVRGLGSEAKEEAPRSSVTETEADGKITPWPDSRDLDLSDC

`CCOC(=O)C1=CC(c2cccc(C)c2)C2CCC(CC(=O)c3ccccc3)OC2N1S(=O)(=O)c1ccc(C)cc1` (stereo not shown) [YX-2102] showed a Ki of 350 nM.
